The text below walks through data of patent publication US12139492B2 (Endotarget Inc., priority 2021, dated 2024).

The DC50 is the concentration giving 50% degradation. For orientation: Dmax means the largest share of the target that was removed.

In one assay the target is BTK (Homo sapiens, UniProt Q06187). The experiment in a line: Degradation of BTK protein in Namalwa cells (Western blot; DC50, Dmax). The following applies: for DC50: read-out: DC50 (BTK degradation), concentration giving 50% reduction of BTK expression level, cell line not given; for Dmax: read-out: Dmax (BTK degradation); for degradation of BTK protein: Namalwa B lymphocyte cells, various concentrations, 24 hours, Western blot. Background: A western blot detects proteins with antibodies after separation by electrophoresis.
Sequence of BTK (Q06187 whole entry): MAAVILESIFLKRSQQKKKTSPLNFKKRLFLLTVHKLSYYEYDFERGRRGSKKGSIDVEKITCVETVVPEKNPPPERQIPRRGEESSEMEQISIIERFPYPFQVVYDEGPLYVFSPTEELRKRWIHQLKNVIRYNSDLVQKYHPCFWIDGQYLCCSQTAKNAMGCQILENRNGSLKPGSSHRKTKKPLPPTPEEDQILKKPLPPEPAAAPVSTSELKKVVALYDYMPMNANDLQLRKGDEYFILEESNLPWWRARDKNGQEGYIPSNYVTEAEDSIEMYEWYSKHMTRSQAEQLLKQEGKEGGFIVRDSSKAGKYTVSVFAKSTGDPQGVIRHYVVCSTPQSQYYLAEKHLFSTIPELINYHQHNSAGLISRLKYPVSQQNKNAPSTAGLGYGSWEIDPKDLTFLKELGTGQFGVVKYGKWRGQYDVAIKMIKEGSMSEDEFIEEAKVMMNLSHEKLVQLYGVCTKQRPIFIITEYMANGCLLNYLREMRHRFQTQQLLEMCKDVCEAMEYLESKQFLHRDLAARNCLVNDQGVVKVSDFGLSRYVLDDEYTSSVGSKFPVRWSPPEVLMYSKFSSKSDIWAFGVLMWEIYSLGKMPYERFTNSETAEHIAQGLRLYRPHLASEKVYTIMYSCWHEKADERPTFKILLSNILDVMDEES

In a further assay the test system is Mino cells. The experiment in a line: Antiproliferative effect, MTS cell viability assay, Mino cells. Format: cell-based. Particulars: Homo sapiens, MINO, Mino mantle cell lymphoma cells; read-out: IC50 (anti-proliferation) Mino cells. The gist of the method:
(§1)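 Mino and JeKo-1 mantle B-cell lymphoma lines were exposed to compound at 0, 0.001, 0.01, 0.1, 1 and 10 μM for 72 h. Viability was read by MTS reduction to formazan, measured as absorbance at 490 nm.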
For orientation: Formazan colour is commonly taken as a measure of viable cells.

The next assay relates to JeKo-1 cells. The experiment in a line: Antiproliferative effect, MTS cell viability assay, JeKo-1 cells. Format: cell-based. The following applies: Homo sapiens; JeKo-1 mantle cell lymphoma cells; read-out: IC50 (anti-proliferation) JeKO-1 cells. The gist of the method: as §1

For the molecule `Nc1ncnc2c1c(-c1ccc(Oc3ccccc3)cc1)nn2C1CCN(C[C@H]2CCN(CC3CN(CC4CN(c5ccc6c(c5)C(=O)N(C5CCC(=O)NC5=O)C6=O)C4)C3)C2)CC1` (stereo partly drawn) [Compound 427a, 5-(3-((3-(((R)-3-((4-(4-amino-3-(4-phenoxyphenyl)-1H-pyrazolo[3,4-d]pyrimidin-1-yl)piperidin-1-yl)methyl)pyrrolidin-1-yl)methyl)azetidin-1-yl)methyl)azetidin-1-yl)-2-(2,6-dioxopiperidin-3-yl)isoindoline-1,3-dione], at BTK, the DC50 was greater than 50 nM and the Dmax is greater than 90%. The IC50 with Mino cells lay within 1000 to 10000 nM. Moreover, the IC50 with JeKo-1 cells is 1000 to 10000 nM.
Take `Nc1ncnc2c1c(-c1ccc(Oc3ccccc3)cc1)nn2C1CCN(C[C@@H]2CCN(CC3CN(CC4CN(c5ccc6c(c5)C(=O)N(C5CCC(=O)NC5=O)C6=O)C4)C3)C2)CC1` (stereo partly drawn) [Compound 427b, 5-(3-((3-(((S)-3-((4-(4-amino-3-(4-phenoxyphenyl)-1H-pyrazolo[3,4-d]pyrimidin-1-yl)piperidin-1-yl)methyl)pyrrolidin-1-yl)methyl)azetidin-1-yl)methyl)azetidin-1-yl)-2-(2,6-dioxopiperidin-3-yl)isoindoline-1,3-dione]: at BTK, the DC50 is greater than 50 nM and the Dmax was greater than 90%. Also, the IC50 with Mino cells lay within 1000 to 10000 nM. Further, the IC50 in the assay on JeKo-1 cells was 1000 to 10000 nM.
As for `Nc1ncnc2c1c(-c1ccc(Oc3ccccc3)cc1)nn2C1CCN(CC2CCN(CC3CN(CC4CN(c5ccc6c(c5)CN(C5CCC(=O)NC5=O)C6=O)C4)C3)C2)CC1` (stereo not shown) [Compound 428, 3-(5-(3-((3-((3-((4-(4-amino-3-(4-phenoxyphenyl)-1H-pyrazolo[3,4-d]pyrimidin-1-yl)piperidin-1-yl)methyl)pyrrolidin-1-yl)methyl)azetidin-1-yl)methyl)azetidin-1-yl)-1-oxoisoindolin-2-yl)piperidine-2,6-dione], the DC50 on BTK is 10 to 50 nM. On BTK, the Dmax was greater than 90%. Moreover, the IC50 in the assay with Mino cells and with JeKo-1 cells was 1000 to 10000 nM in each case.
For the molecule `Nc1ncnc2c1c(-c1ccc(Oc3ccccc3)cc1)nn2C1CCN(CC2CCN(CC3CN(c4ccc5c(c4)C(=O)N(C4CCC(=O)NC4=O)C5=O)C3)CC2)CC1` (stereo not shown) [Compound 429, 5-(3-((4-((4-(4-amino-3-(4-phenoxyphenyl)-1H-pyrazolo(3,4-d)pyrimidin-1-yl)piperidin-1-yl)methyl)piperidin-1-yl)methyl)azetidin-1-yl)-2-(2,6-dioxopiperidin-3-yl)isoindoline-1,3-dione], on BTK, the DC50 was in the range of 10 to 50 nM and the Dmax was greater than 90%. Moreover, in the assay with Mino cells, the IC50 was less than 1000 nM. In the assay with JeKo-1 cells, the IC50 fell in the range of 1000 to 10000 nM.
`Nc1ncnc2c1c(-c1ccc(Oc3ccccc3)cc1)nn2C1CCN(CC2CCN(CC3CN(c4ccc5c(c4)CN(C4CCC(=O)NC4=O)C5=O)C3)CC2)CC1` (stereo not shown) [Compound 430, 3-(5-(3-((4-((4-(4-amino-3-(4-phenoxyphenyl)-1H-pyrazolo[3,4-d]pyrimidin-1-yl)piperidin-1-yl)methyl)piperidin-1-yl)methyl)azetidin-1-yl)-1-oxoisoindolin-2-yl)piperidine-2,6-dione]: the DC50 at BTK is 10 to 50 nM. Moreover, the Dmax on BTK was greater than 90%. Moreover, the IC50 in the assay on Mino cells and in the assay on JeKo-1 cells was less than 1000 nM throughout.
As for `Nc1ncnc2c1c(-c1ccc(Oc3ccccc3)cc1)nn2C1CCN(CC2CCN(CC3CCN(CC4CN(c5ccc6c(c5)C(=O)N(C5CCC(=O)NC5=O)C6=O)C4)CC3)CC2)CC1` (stereo not shown) [Compound 431, 5-(3-((4-((4-((4-(4-amino-3-(4-phenoxyphenyl)-1H-pyrazolo(3,4-d)pyrimidin-1-yl)piperidin-1-yl)methyl)piperidin-1-yl)methyl)piperidin-1-yl)methyl)azetidin-1-yl)-2-(2,6-dioxopiperidin-3-yl)isoindoline-1,3-dione], at BTK, the “degradation of BTK protein” value was “dose-dependent degradation”, the DC50 is greater than 50 nM and the Dmax is greater than 90%. Also, the IC50 with Mino cells was less than 1000 nM. In the assay on JeKo-1 cells, the IC50 was less than 1000 nM.
Turning to `Nc1ncnc2c1c(-c1ccc(Oc3ccccc3)cc1)nn2C1CCN(CC2CCN(CC3CCN(CC4CN(c5ccc6c(c5)CN(C5CCC(=O)NC5=O)C6=O)C4)CC3)CC2)CC1` (stereo not shown) [Compound 432, 3-(5-(3-((4-((4-((4-(4-amino-3-(4-phenoxyphenyl)-1H-pyrazolo[3,4-d]pyrimidin-1-yl)piperidin-1-yl)methyl)piperidin-1-yl)methyl)piperidin-1-yl)methyl)azetidin-1-yl)-1-oxoisindolin-2-yl)piperidine-2,6-dione], on BTK, the DC50 lay in the range of 10 to 50 nM and the Dmax was greater than 90%. In the assay with Mino cells, the IC50 was less than 1000 nM. Moreover, in the assay on JeKo-1 cells, the IC50 was less than 1000 nM.
For the molecule `Nc1ncnc2c1c(-c1ccc(Oc3ccccc3)cc1)nn2C1CCN(C2CCN(CC3CN(c4ccc5c(c4)C(=O)N(C4CCC(=O)NC4=O)C5=O)C3)CC2)CC1` (stereo not shown) [Compound 433, 5-(3-((4-(4-amino-3-(4-phenoxyphenyl)-1H-pyrazolo(3,4-d)pyrimidin-1-yl)-(1,4′-bipiperidin)-1′-yl)methyl)azetidin-1-yl)-2-(2,6-dioxopiperidin-3-yl)isoindoline-1,3-dione], on BTK, the “degradation of BTK protein” value is given as “dose-dependent degradation”, the DC50 was greater than 50 nM and the Dmax was greater than 90%. In addition, the IC50 with Mino cells is less than 1000 nM. In addition, the IC50 with JeKo-1 cells was in the range of 1000 to 10000 nM.
On to `Nc1ncnc2c1c(-c1ccc(Oc3ccccc3)cc1)nn2C1CCN(C2CCN(CC3CN(c4ccc5c(c4)CN(C4CCC(=O)NC4=O)C5=O)C3)CC2)CC1` (stereo not shown) [Compound 434, 3-(5-(3-((4-(4-amino-3-(4-phenoxyphenyl)-1H-pyrazolo[3,4-d]pyrimidin-1-yl)-[1,4′-bipiperidin]-1′-yl)methyl)azetidin-1-yl)-1-oxoisoindolin-2-yl)piperidine-2,6-dione], for which, at BTK, the DC50 lay in the range of 10 to 50 nM and the Dmax is greater than 90%. The IC50 with Mino cells is less than 1000 nM. In addition, the IC50 in the assay on JeKo-1 cells fell in the range of 1000 to 10000 nM.
As for `Nc1ncnc2c1c(-c1ccc(Oc3ccccc3)cc1)nn2C1CCN(C2CCN(CC3CCN(CC4CN(c5ccc6c(c5)C(=O)N(C5CCC(=O)NC5=O)C6=O)C4)CC3)CC2)CC1` (stereo not shown) [Compound 435, 5-(3-((4-((4-(4-amino-3-(4-phenoxyphenyl)-1H-pyrazolo[3,4-d]pyrimidin-1-yl)-[1,4′-bipiperidin]-1′-yl)methyl)piperidin-1-yl)methyl)azetidin-1-yl)-2-(2,6-dioxopiperidin-3-yl)isoindoline-1,3-dione], at BTK, the “degradation of BTK protein” value is on record as “dose-dependent degradation”, the DC50 was less than 10 nM and the Dmax was greater than 90%. Moreover, in the assay with Mino cells, the IC50 is less than 1000 nM. Also, the IC50 in the assay with JeKo-1 cells lay within 1000 to 10000 nM.
With `Nc1ncnc2c1c(-c1ccc(Oc3ccccc3)cc1)nn2C1CCN(C2CCN(CC3CCN(CC4CN(c5ccc6c(c5)CN(C5CCC(=O)NC5=O)C6=O)C4)CC3)CC2)CC1` (stereo not shown) [Compound 436, 3-(5-(3-((4-((4-(4-amino-3-(4-phenoxyphenyl)-1H-pyrazolo[3,4-d]pyrimidin-1-yl)-[1,4′-bipiperidin]-1′-yl)methyl)piperidin-1-yl)methyl)azetidin-1-yl)-1-oxoisoindolin-2-yl)piperidine-2,6-dione], at BTK, the DC50 was less than 10 nM and the greatest degradation seen (Dmax) was greater than 90%. For the same molecule, the IC50 in the assay on Mino cells was less than 1000 nM. Also, the IC50 in the assay on JeKo-1 cells was in the range of 1000 to 10000 nM.
`Nc1ncnc2c1c(-c1ccc(Oc3ccccc3)cc1)nn2C1CCN(C2CCN(CC3CN(CC4CN(c5ccc6c(c5)C(=O)N(C5CCC(=O)NC5=O)C6=O)C4)C3)CC2)CC1` (stereo not shown) [Compound 437]: at BTK, the “degradation of BTK protein” value is on record as “dose-dependent degradation”, the DC50 was in the range of 10 to 50 nM and the Dmax is greater than 90%. For the same molecule, the IC50 in the assay with Mino cells lay in the range of 1000 to 10000 nM. Also, the IC50 with JeKo-1 cells lay in the range of 1000 to 10000 nM.
As for `Nc1ncnc2c1c(-c1ccc(Oc3ccccc3)cc1)nn2C1CCN(C2CCN(CC3CN(CC4CN(c5ccc6c(c5)CN(C5CCC(=O)NC5=O)C6=O)C4)C3)CC2)CC1` (stereo not shown) [Compound 438, 3-(5-(3-((3-((4-(4-amino-3-(4-phenoxyphenyl)-1H-pyrazolo[3,4-d]pyrimidin-1-yl)-[1,4′-bipiperidin]-1′-yl)methyl)azetidin-1-yl)methyl)azetidin-1-yl)-1-oxoisoindolin-2-yl)piperidin-2,6-dione], on BTK, the DC50 lay in the range of 10 to 50 nM and the Dmax is greater than 90%. Moreover, in the assay with Mino cells, the IC50 was in the range of 1000 to 10000 nM. Also, in the assay on JeKo-1 cells, the IC50 fell in the range of 1000 to 10000 nM.
Regarding `Nc1ncnc2c1c(-c1ccc(Oc3ccccc3)cc1)nn2C1CCN(CC2CN(CC3CCN(c4ccc5c(c4)CN(C4CCC(=O)NC4=O)C5=O)CC3)C2)CC1` (stereo not shown) [Compound 440], at BTK, the DC50 was less than 10 nM and the Dmax was greater than 90%. Moreover, the IC50 in the assay on Mino cells is less than 1000 nM. For the same molecule, in the assay with JeKo-1 cells, the IC50 lay within 1000 to 10000 nM.
`Nc1ncnc2c1c(-c1ccc(Oc3ccccc3)cc1)nn2C1CCN(CC2CN(CC3CN(c4ccc5c(c4)C(=O)N(C4CCC(=O)NC4=O)C5=O)C3)C2)CC1` (stereo not shown) [Compound 441, 5-(3-((3-((4-(4-amino-3-(4-phenoxyphenyl)-1H-pyrazolo(3,4-d)pyrimidin-1-yl)piperidin-1-yl)methyl)azetidin-1-yl)methyl)azetidin-1-yl)-2-(2,6-dioxopiperidin-3-yl)isoindoline-1,3-dione]: the “degradation of BTK protein” value at BTK is “dose-dependent degradation”. At BTK, the Dmax was less than 50%. The IC50 in the assay on Mino cells and in the assay on JeKo-1 cells was greater than 10000 nM throughout.
Take `Nc1ncnc2c1c(-c1ccc(Oc3ccccc3)cc1)nn2C1CCN(CC2CN(CC3CN(c4ccc5c(c4)CN(C4CCC(=O)NC4=O)C5=O)C3)C2)CC1` (stereo not shown) [Compound 442, 3-(5-(3-((3-((4-(4-amino-3-(4-phenoxyphenyl)-1H-pyrazolo[3,4-d]pyrimidin-1-yl)piperidin-1-yl)methyl)azetidin-1-yl)methyl)azetidin-1-yl)-1-oxoisoindolin-2-yl)piperidine-2,6-dione]: the Dmax at BTK was less than 50%. For the same molecule, the IC50 with Mino cells and with JeKo-1 cells was greater than 10000 nM in each case.
